# Measurements: ChEMBL document CHEMBL5385855, “Design and synthesis of hederagenin derivatives modulating STING/NF-κB signaling for the relief of acute liver injury in septic mice” (2023)
# Calls of active or inactive are those of the source. The rule behind the calls is not given here.
# Columns and labels:
# RAW264.7 [1] = assay: Cytotoxicity against mouse RAW264.7 cells assessed as reduction in cell viability at 40 uM incubated for 4 hrs by MTT assay; format: functional
# RAW264.7 [2] = assay: Antiinflammatory activity in mouse RAW264.7 cells assessed as inhibition of LPS-induced NO production at 20 uM preincubated with compound for 2 hrs followed by LPS stimulation and measured after 24 hrs by Griess reagent based analysis; format: functional, cell-based; conditions: time 26.0 hrs
# Mus musculus [3] = assay: In-vivo inhibition of STING/IRF3/NF-kappaB activation in liver septic mouse model assessed as reduction in STING level at 1 to 9 mg/kg, ip pretreated with compound for 3 days followed by LPS-induction and measured after 2 hrs by Western blotting analysis; format: functional, organism-based; conditions: dose 1-9 mg/kg, time 74.0 hrs
# Mus musculus [4] = assay: Antiinflammatory activity against LPS-induced liver injury BALB/c mouse model assessed as reduction in IFN-beta level in liver at 1 to 9 mg/kg, ip pretreated with compound for 3 days followed by LPS-induction and measured after 12 hrs; format: functional, organism-based; conditions: dose 1-9 mg/kg, time 3.5 day
# [5] = target: T1, Stimulator of interferon genes protein (Mus musculus) (UniProt Q3TBT3); assay: Activation of STING signaling pathway in mouse RAW264.7 cells assessed as inhibition of LPS-induced TBK1 phosphorylation at 2.5 to 10 uM pretreated with compound for 2 hrs followed by LPS-induction and measured after 6 hrs by Western blot analysis; format: cell-based; conditions: filed as activator, dose 2.5-10 µM, time 8.0 hrs
# T1 sequence (whole entry): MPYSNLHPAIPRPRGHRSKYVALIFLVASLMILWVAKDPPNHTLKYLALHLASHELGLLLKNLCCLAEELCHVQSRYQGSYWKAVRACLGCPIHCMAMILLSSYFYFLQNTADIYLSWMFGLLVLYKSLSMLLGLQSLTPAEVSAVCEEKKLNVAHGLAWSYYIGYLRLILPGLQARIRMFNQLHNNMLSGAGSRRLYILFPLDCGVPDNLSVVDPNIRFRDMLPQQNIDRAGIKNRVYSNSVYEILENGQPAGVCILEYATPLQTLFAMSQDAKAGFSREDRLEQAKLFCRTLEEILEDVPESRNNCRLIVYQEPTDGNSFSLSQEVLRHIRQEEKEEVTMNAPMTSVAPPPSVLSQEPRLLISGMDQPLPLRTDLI
# Mus musculus [6] = assay: Antiinflammatory activity against LPS-induced liver injury BALB/c mouse model assessed as reduction in TNF-alpha level in liver at 1 to 9 mg/kg, ip pretreated with compound for 3 days followed by LPS-induction and measured after 12 hrs; format: functional, organism-based; conditions: dose 1-9 mg/kg, time 3.5 day
# Mus musculus [7] = assay: In-vivo inhibition of STING/IRF3/NF-kappaB activation in liver septic mouse model assessed as reduction in p65 phosphorylation at 1 to 9 mg/kg, ip pretreated with compound for 3 days followed by LPS-induction and measured after 2 hrs by Western blotting analysis; format: functional, organism-based; conditions: dose 1-9 mg/kg, time 74.0 hrs
# [8] = target: T1, Stimulator of interferon genes protein (Mus musculus); assay: Activation of STING signaling pathway in mouse RAW264.7 cells assessed as inhibition of LPS-induced IRF3 phosphorylation at 2.5 to 10 uM pretreated with compound for 2 hrs followed by LPS-induction and measured after 6 hrs by Western blot analysis; format: cell-based; conditions: filed as activator, dose 2.5-10 µM, time 8.0 hrs
# [9] = target: T1, Stimulator of interferon genes protein (Mus musculus); assay: Activation of STING signaling pathway in mouse RAW264.7 cells assessed as inhibition of LPS-induced IkappaB-alpha phosphorylation at 2.5 to 10 uM pretreated with compound for 2 hrs followed by LPS-induction and measured after 6 hrs by Western blot analysis; format: cell-based; conditions: filed as activator, dose 2.5-10 µM, time 8.0 hrs
# Mus musculus [10] = assay: In-vivo inhibition of STING/IRF3/NF-kappaB activation in liver septic mouse model assessed as reduction in IRF3 phosphorylation at 1 to 9 mg/kg, ip pretreated with compound for 3 days followed by LPS-induction and measured after 2 hrs by Western blotting analysis; format: functional, organism-based; conditions: dose 1-9 mg/kg, time 74.0 hrs
# [11] = target: T1, Stimulator of interferon genes protein (Mus musculus); assay: Activation of STING signaling pathway in mouse RAW264.7 cells assessed as inhibition of LPS-induced p65 phosphorylation at 2.5 to 10 uM pretreated with compound for 2 hrs followed by LPS-induction and measured after 6 hrs by Western blot analysis; format: cell-based; conditions: filed as activator, dose 2.5-10 µM, time 8.0 hrs
# RAW264.7 [12] = assay: Antiinflammatory activity in mouse RAW264.7 cells assessed as inhibition of LPS-induced iNOS expression at 20 uM preincubated with compound for 2 hrs followed by LPS stimulation and measured after 6 hrs by ELISA analysis; format: functional, cell-based; conditions: time 8.0 hrs
# RAW264.7 [13] = assay: Antiinflammatory activity in mouse RAW264.7 cells assessed as reduction in LPS-induced IL-6 level at 20 uM preincubated with compound for 2 hrs followed by LPS stimulation and measured after 6 hrs by ELISA analysis; format: functional, cell-based; conditions: time 8.0 hrs
# RAW264.7 [14] = assay: Antiinflammatory activity in mouse RAW264.7 cells assessed as reduction in LPS-induced TNF-alpha level at 20 uM preincubated with compound for 2 hrs followed by LPS stimulation and measured after 6 hrs by ELISA analysis; format: functional, cell-based; conditions: time 8.0 hrs
# Mus musculus [15] = assay: Antiinflammatory activity against LPS-induced liver injury BALB/c mouse model assessed as reduction in IL-6 level in liver at 1 to 9 mg/kg, ip pretreated with compound for 3 days followed by LPS-induction and measured after 12 hrs; format: functional, organism-based; conditions: dose 1-9 mg/kg, time 3.5 day
# Mus musculus [16] = assay: Antiinflammatory activity against LPS-induced liver injury BALB/c mouse model assessed as reduction in ALT level in serum at 1 to 9 mg/kg, ip pretreated with compound for 3 days followed by LPS-induction and measured after 12 hrs; format: functional, organism-based; conditions: dose 1-9 mg/kg, time 3.5 day
# Mus musculus [17] = assay: In-vivo inhibition of STING/IRF3/NF-kappaB activation in liver septic mouse model assessed as reduction in TBK phosphorylation at 1 to 9 mg/kg, ip pretreated with compound for 3 days followed by LPS-induction and measured after 2 hrs by Western blotting analysis; format: functional, organism-based; conditions: dose 1-9 mg/kg, time 74.0 hrs
# [18] = target: T1, Stimulator of interferon genes protein (Mus musculus); assay: Binding affinity to STING in mouse RAW264.7 cells assessed as thermal stabilization at 49 to 55 degree C at 5 to 50 uM measured for 12 hrs by cellular thermal shift assay; format: cell-based; conditions: filed as modulator, dose 5-50 µM
# Mus musculus [19] = assay: Antiinflammatory activity against LPS-induced liver injury BALB/c mouse model assessed as reduction in hemorrhage severity at 1 to 9 mg/kg, ip pretreated with compound for 3 days followed by LPS-induction and measured after 12 hrs by H and E staining based analysis; format: functional, organism-based; conditions: dose 1-9 mg/kg, time 3.5 day
# Mus musculus [20] = assay: In-vivo inhibition of STING/IRF3/NF-kappaB activation in liver septic mouse model assessed as reduction in IkappaB-alpha phosphorylation at 1 to 9 mg/kg, ip pretreated with compound for 3 days followed by LPS-induction and measured after 2 hrs by Western blotting analysis; format: functional, organism-based; conditions: dose 1-9 mg/kg, time 74.0 hrs
# RAW264.7 [21] = assay: Antiinflammatory activity in mouse RAW264.7 cells assessed as reduction in LPS-induced IFN-beta level at 20 uM preincubated with compound for 2 hrs followed by LPS stimulation and measured after 6 hrs by ELISA analysis; format: functional, cell-based; conditions: time 8.0 hrs
# Mus musculus [22] = assay: Antiinflammatory activity against LPS-induced liver injury BALB/c mouse model assessed as reduction in ALP level in serum at 1 to 9 mg/kg, ip pretreated with compound for 3 days followed by LPS-induction and measured after 12 hrs; format: functional, organism-based; conditions: dose 1-9 mg/kg, time 3.5 day
# Mus musculus [23] = assay: Antiinflammatory activity against LPS-induced liver injury BALB/c mouse model assessed as reduction in AST level in serum at 1 to 9 mg/kg, ip pretreated with compound for 3 days followed by LPS-induction and measured after 12 hrs; format: functional, organism-based; conditions: dose 1-9 mg/kg, time 3.5 day
smiles,measurement,setting,value
CC1(C)CC[C@]2(C(=O)N3CCOCC3)CC[C@]3(C)C(=CC[C@@H]4[C@@]5(C)Cc6nccnc6[C@@](C)(CO)[C@@H]5CC[C@]43C)[C@@H]2C1,Activity,RAW264.7 [1],>90%
same,Activity,RAW264.7 [2],Active
CC1(C)CC[C@]2(C(=O)O)CC[C@]3(C)C(=CC[C@@H]4[C@@]5(C)Cc6nccnc6[C@@](C)(CO)[C@@H]5CC[C@]43C)[C@@H]2C1,inhibition,Mus musculus [3],Active
same,Activity,Mus musculus [4],Active
same,Activity,RAW264.7 [1],>90%
same,Activity,[5],Active
same,Activity,Mus musculus [6],Active
same,inhibition,Mus musculus [7],Active
same,Activity,[8],Active
same,Activity,RAW264.7 [2],Active
same,Activity,[9],Active
same,inhibition,Mus musculus [10],Active
same,Activity,[11],Active
same,Activity,RAW264.7 [12],Active
same,Activity,RAW264.7 [13],Active
same,Activity,RAW264.7 [14],Active
same,Activity,Mus musculus [15],Active
same,Activity,Mus musculus [16],Active
same,inhibition,Mus musculus [17],Active
same,Activity,[18],Active
same,Activity,Mus musculus [19],Active
same,inhibition,Mus musculus [20],Active
same,Activity,RAW264.7 [21],Active
same,Activity,Mus musculus [22],Active
same,Activity,Mus musculus [23],Active
CC1(C)CC[C@]2(C(=O)N3CCCC3C(=O)O)CC[C@]3(C)C(=CC[C@@H]4[C@@]5(C)Cc6nccnc6[C@@](C)(CO)[C@@H]5CC[C@]43C)[C@@H]2C1 (some centres not stated),Activity,RAW264.7 [1],>90%
same,Activity,RAW264.7 [2],Active
CN1CCN(C(=O)CCC(=O)OC[C@]2(C)c3nccnc3C[C@@]3(C)[C@H]2CC[C@]2(C)[C@@H]3CC=C3[C@@H]4CC(C)(C)CC[C@]4(C(=O)OCc4ccccc4)CC[C@]32C)CC1,Activity,RAW264.7 [1],<90%
Cc1nc2c(s1)C[C@@]1(C)[C@@H](CC[C@]3(C)[C@@H]1CC=C1[C@@H]4CC(C)(C)CC[C@]4(C(=O)O)CC[C@]13C)[C@]2(C)CO,Activity,RAW264.7 [1],>90%
CCOC(=O)c1noc2c1C[C@@]1(C)[C@@H](CC[C@]3(C)[C@@H]1CC=C1[C@@H]4CC(C)(C)CC[C@]4(C(=O)OCc4ccccc4)CC[C@]13C)[C@]2(C)CO,Activity,RAW264.7 [1],>90%
CC1(C)CC[C@]2(C(=O)NC(Cc3ccccc3)C(=O)O)CC[C@]3(C)C(=CC[C@@H]4[C@@]5(C)Cc6nccnc6[C@@](C)(CO)[C@@H]5CC[C@]43C)[C@@H]2C1 (some centres not stated),Activity,RAW264.7 [1],>90%
same,Activity,RAW264.7 [2],Active
CC(C)CC(NC(=O)[C@]12CCC(C)(C)C[C@H]1C1=CC[C@@H]3[C@@]4(C)Cc5nccnc5[C@@](C)(CO)[C@@H]4CC[C@@]3(C)[C@]1(C)CC2)C(=O)O (some centres not stated),Activity,RAW264.7 [1],>90%
CCOC(=O)c1noc2c1C[C@@]1(C)[C@@H](CC[C@]3(C)[C@@H]1CC=C1[C@@H]4CC(C)(C)CC[C@]4(C(=O)OCc4ccccc4)CC[C@]13C)[C@]2(C)COC(=O)CCC(=O)O,Activity,RAW264.7 [1],>90%
CC1(C)CC[C@]2(C(=O)OCc3ccccc3)CC[C@]3(C)C(=CC[C@@H]4[C@@]5(C)Cc6nccnc6[C@@](C)(COC(=O)CCC(=O)N6CCCCC6)[C@@H]5CC[C@]43C)[C@@H]2C1,Activity,RAW264.7 [1],>90%
same,Activity,RAW264.7 [2],Active
CC1(C)CC[C@]2(C(=O)OCc3ccccc3)CC[C@]3(C)C(=CC[C@@H]4[C@@]5(C)Cc6nccnc6[C@@](C)(COC(=O)CCC(=O)n6nnc7ccccc76)[C@@H]5CC[C@]43C)[C@@H]2C1,Activity,RAW264.7 [1],<90%
O=C(Nc1ccc(I)cc1)c1ccc([N+](=O)[O-])o1,inhibition,Mus musculus [3],Active
same,Activity,Mus musculus [4],Active
same,Activity,[5],Active
same,Activity,Mus musculus [6],Active
same,inhibition,Mus musculus [7],Active
same,Activity,[8],Active
same,Activity,[9],Active
same,inhibition,Mus musculus [10],Active
same,Activity,[11],Active
same,Activity,Mus musculus [15],Active
same,Activity,Mus musculus [16],Active
same,inhibition,Mus musculus [17],Active
same,Activity,Mus musculus [19],Active
same,inhibition,Mus musculus [20],Active
same,Activity,Mus musculus [22],Active
same,Activity,Mus musculus [23],Active
CC1(C)CC[C@]2(C(=O)OCc3ccccc3)CC[C@]3(C)C(=CC[C@@H]4[C@@]5(C)Cc6nccnc6[C@@](C)(COC(=O)CCC(=O)n6cccn6)[C@@H]5CC[C@]43C)[C@@H]2C1,Activity,RAW264.7 [1],<90%
CC1(C)CC[C@]2(C(=O)OCc3ccccc3)CC[C@]3(C)C(=CC[C@@H]4[C@@]5(C)Cc6nccnc6[C@@](C)(COC(=O)CCC(=O)N6CCCC6)[C@@H]5CC[C@]43C)[C@@H]2C1,Activity,RAW264.7 [1],<90%
CC1(C)CC[C@]2(C(=O)OCc3ccccc3)CC[C@]3(C)C(=CC[C@@H]4[C@@]5(C)Cc6nccnc6[C@@](C)(COC(=O)CCC(=O)Nc6ncn[nH]6)[C@@H]5CC[C@]43C)[C@@H]2C1,Activity,RAW264.7 [1],<90%
CC1(C)CC[C@]2(C(=O)OCc3ccccc3)CC[C@]3(C)C(=CC[C@@H]4[C@@]5(C)Cc6nccnc6[C@@](C)(COC(=O)CCC(=O)N6CCOCC6)[C@@H]5CC[C@]43C)[C@@H]2C1,Activity,RAW264.7 [1],<90%
